Laboratory results as given in ChEMBL document CHEMBL3988442, “University of Dundee, Small-Polar-MMV Screening Library” (2021).

Molecular target: Tryptophan--tRNA ligase (Mycobacterium tuberculosis (strain ATCC 25618 / H37Rv), UniProt P9WFT3)
Experiment: Biochemical assay for Mt-TrpRS
Format: functional

Sequence of Tryptophan--tRNA ligase (P9WFT3 whole entry): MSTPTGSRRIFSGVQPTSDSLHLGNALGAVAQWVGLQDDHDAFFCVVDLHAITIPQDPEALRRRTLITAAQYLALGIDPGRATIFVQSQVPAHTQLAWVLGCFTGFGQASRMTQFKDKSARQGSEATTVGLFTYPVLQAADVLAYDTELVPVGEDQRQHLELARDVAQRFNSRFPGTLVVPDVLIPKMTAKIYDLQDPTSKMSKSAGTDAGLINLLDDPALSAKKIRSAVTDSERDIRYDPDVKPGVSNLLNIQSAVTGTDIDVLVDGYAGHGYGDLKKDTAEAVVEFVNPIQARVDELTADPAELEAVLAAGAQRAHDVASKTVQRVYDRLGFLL

SMILES	IC50 [µM]
CNC(=O)C1(C)CN(c2nc(C)cc(C)n2)CCO1 (centres undefined)	> 195
CNC(=O)c1cnn2c(C3CCCN3C)ccnc12 (centres undefined)	> 195
O=C(NCCc1ccccc1)C1CCN(C(=O)Cn2cncn2)C1 (centres undefined)	> 195
Cc1c[nH]nc1C1CCN(C(=O)C2CCC2)CC1	> 195
COc1cccc(S(=O)(=O)N2C[C@@H](O)[C@H](N(C)C)C2)c1	> 195
Nc1nccc(C2CCN(CC3CC3)C2)n1 (centres undefined)	> 195
Cn1nccc1CN1CCCC(COc2ccccc2F)C1 (centres undefined)	> 195
O=C(NCc1ccccn1)c1cncc(C2CCCN2)n1 (centres undefined)	> 195
Cc1nccc(N2CCCC2CCNS(C)(=O)=O)n1 (centres undefined)	> 195
O=C(c1ccc(=O)[nH]n1)N1CCNCC1c1ccccc1 (centres undefined)	> 195
Oc1cc(CC2COCCN(CC3(O)CCOCC3)C2)ncn1 (centres undefined)	> 195
COCCNc1nnc(-c2ccccn2)s1	> 195
CCc1n[nH]c(C(=O)NCCn2ccc(C)n2)c1C	> 195
O=C(NCc1ccccn1)c1cnc(C2CCCN2)cn1 (centres undefined)	> 195
Cc1nc(C(=O)NCc2ccccn2)cc(C2CCCN2)n1 (centres undefined)	> 195
CCCC(=O)N1CCCC(c2ccccn2)C1 (centres undefined)	> 195
COc1cccc(CNCc2cccnc2)c1	> 195
O=C(Cc1cccc(O)c1)N1CCCC(O)(CN2CCOCC2)CC1 (centres undefined)	> 195
O=C(Cc1cccc(O)c1)N1CCCC(O)(CN2CCCC2)CC1 (centres undefined)	> 195
OCCN1CCCCC1c1cc[nH]n1 (centres undefined)	> 195
CC(C)C(=O)N1CCC(C)(c2cc(O)[nH]n2)CC1	> 195
O=C(NC[C@H]1CC[C@H](c2nnc(-c3cccnc3)o2)CC1)C1CC1	> 195

SMILES	IC50 [µM]
Cc1c[nH]nc1C1CCN(C(=O)C2CCCC2)C1 (centres undefined)	> 195
c1cc(-c2cnc(C3CCNCC3)cn2)n[nH]1	> 195
Nc1nccnc1C1CN(Cc2ccc(OCC(=O)O)cc2)CCO1 (centres undefined)	> 195
O=C(c1cc2c(s1)CCC2)N1CCCC(c2cnccn2)C1 (centres undefined)	> 195
NC(=O)C1(Cc2ccc(-c3ccccc3)cc2)CCNC1 (centres undefined)	> 195
Cc1cnc(N2CCOC(C(=O)NCc3ccccc3)C2)s1 (centres undefined)	> 195
NC(=O)CN1CCC(c2cccc(Oc3ccccc3)n2)CC1	> 195
Nc1nccc(C2CCN(CCO)C2)n1 (centres undefined)	> 195
CN(C)c1nccc(C2CCN(C3CCCCC3O)CC2)n1 (centres undefined)	> 195
Cc1cnc(N)c(C(=O)C2CCN(C(=O)C3CCC3)CC2)c1	> 195
Cc1cnc(N)c(C(=O)C2CCN(C(=O)c3cnc(C)cn3)CC2)c1	> 195
Cc1nc(C2CCCN2C(=O)COc2ccccc2)ncc1C(N)=O (centres undefined)	> 195
COc1ccc(C2Nc3cc(Cl)ccc3C3=NCCN32)cc1O (centres undefined)	> 195
COCC(=O)N1CCCCC1c1nccc(C)n1 (centres undefined)	> 195
CC(=O)N1CCCC(c2ccccn2)C1 (centres undefined)	> 195
Cc1ccc(S(=O)(=O)N2C[C@H]3C[C@H](NC(=O)c4cc[nH]n4)[C@H]3C2)cc1	> 195
O=C(c1cccnn1)N1C[C@@H]2CC[C@H](Oc3cccc(F)c3)[C@@H]2C1	> 195
Cc1cc(N)cc(C2CN(Cc3cc[nH]n3)CCO2)n1 (centres undefined)	> 195
NCc1cnn(-c2ccccc2C(=O)NCCc2ccccn2)c1	> 195
O=C1CO[C@H]2CN(Cc3ccccc3Br)C[C@@H]2N1	> 195
COCCNC(=O)c1ccccc1-n1cc(CN)cn1	> 195
Cn1cc(CN2CC[C@H](O)[C@@H](n3ccc(=O)[nH]c3=O)CC2)cn1	> 195

SMILES	IC50 [µM]
CN(CC1(O)CCN(c2ccccn2)C1)C(=O)Cc1ccsc1 (centres undefined)	> 195
Cc1nc(C2CCCN2C(=O)CC2CCCC2)ncc1C(N)=O (centres undefined)	> 195
CC(=O)N1CCC(Cc2cnc(C(=O)N3CCCC3)cn2)C1 (centres undefined)	> 195
Cc1c[nH]nc1C1CCN(S(=O)(=O)N(C)C)C1 (centres undefined)	> 195
O=C(c1cnco1)N1C[C@@H](O)[C@H](Oc2cccc(F)c2)C1	> 195
CNCC(=O)N1CCCCC1c1nccc(C)n1 (centres undefined)	> 195
NC(=O)CN1CCOCC(Cc2ccccc2)C1 (centres undefined)	> 195
CC(=O)N1CCCC(c2ccc(C(N)=O)cn2)C1 (centres undefined)	> 195
Cc1ncsc1CN1CCN(C2CCOCC2)CC(C(N)=O)C1 (centres undefined)	> 195
CNc1cc(C2CCCN2Cc2ccc(OCC(=O)O)cc2)ccn1 (centres undefined)	> 195
COCCN1CCC(c2cncc(N(C)C)n2)CC1	> 195
O=C(c1cccnc1)N1CCC(c2nc(O)cc(-c3ccncc3)n2)C1 (centres undefined)	> 195
O=C(c1ccccn1)N1CCC(c2nc(O)cc(-c3ccncc3)n2)C1 (centres undefined)	> 195
CN1CCC(Cc2cc(Nc3ccccn3)ncn2)CC1	> 195
CNc1nccnc1C1CCN(C(C)C)CC1	> 195
CN(C)c1cncc(C2CCN(CC(N)=O)CC2)n1	> 195
O=C(Cn1ccnc1)N1C[C@@H]2CC[C@H](Oc3ccccc3F)[C@@H]2C1	> 195
C[C@]1(O)CN(CCC(N)=O)CC[C@@H]1Oc1cccc(F)c1	> 195
CC(=O)N1CCCC(Cc2nccn2C)C1 (centres undefined)	> 195
Cn1nccc1CCC(=O)N1CCCC(Cc2cccnc2)C1 (centres undefined)	> 195
Cc1cccc(C2CCCN2S(=O)(=O)N(C)C)n1 (centres undefined)	> 195
CCn1cc(C(=O)N2CCCC(c3nccs3)C2)cn1 (centres undefined)	> 195

SMILES	IC50 [µM]
O=C1CCCN1CCCC(=O)N1CCCC(Cc2cccnc2)C1 (centres undefined)	> 195
COCc1cc(O)nc(C2CCCN(Cc3cccc(Cl)c3Cl)C2)n1 (centres undefined)	> 195
OC1CCN(Cc2c(-c3ccco3)[nH]c3ncccc23)CC1	> 195
O=C(C1CCCCC1)N1CCC(c2n[nH]c3nccnc23)CC1	> 195
O=C(C1CCCC1)N1CCC(c2n[nH]c3nccnc23)CC1	> 195
CC(=O)NC[C@]1(O)CCN(C(=O)c2ccc(F)c(Cl)c2)C[C@H]1O	> 195
O=C(N[C@@H]1CN(Cc2ccc3[nH]ccc3c2)C[C@H]1O)c1cscn1	> 195
CC(=O)N1CCCC(c2cccc(-n3ccnc3)n2)C1 (centres undefined)	> 195
c1cnc(N2CCCC(c3n[nH]c4ncccc34)C2)nc1 (centres undefined)	> 195
c1cnc(N2CCC(c3n[nH]c4ncccc34)C2)nc1 (centres undefined)	> 195
CN(CCC(=O)N1CCCC(Cc2cccnc2)C1)Cc1cccnc1 (centres undefined)	> 195
COc1ccc(CN2C[C@@H](O)[C@](O)(CNC(=O)c3ccccn3)C2)cc1	> 195
Cc1nccn1CC1CCCN(C(=O)c2cnn(C)c2)C1 (centres undefined)	> 195
CN(C)C(=O)NCC1CC2(CO1)CN(c1nncs1)C2 (centres undefined)	> 195
O=C(NCC1CC2(CO1)CN(c1ncccn1)C2)C1CCC1 (centres undefined)	> 195
Cc1cc(CN2CC[C@@H]3O[C@@H](c4nnc(C)o4)C[C@H]3C2)no1	> 195
OCc1nnc2n1CCN(c1cnccn1)C2	> 195
O=C(Cc1cccs1)N1Cc2nc(CN3CCCC3)oc2C1	> 195
COc1ccc(-c2cc(C3CCCNC3)ccn2)cc1 (centres undefined)	> 195
Cc1cnccc1-c1cnn(CCNC(=O)c2ccncc2)c1C1CC1	> 195
CNC(=O)c1cc(C2CCCNC2)n[nH]1 (centres undefined)	> 195
NCC(=O)N1CCCC1c1n[nH]cc1-c1ccccc1F (centres undefined)	> 195

SMILES	IC50 [µM]
C[C@H](N)Cn1nc(-c2cccs2)oc1=O	> 195
O=C(CCC1CCCC1)N1CCCC(c2ncc3c(n2)CCNC3)C1 (centres undefined)	> 195
Cc1nc(C2(O)CCCNCC2)sc1CCOc1ccc(F)cc1 (centres undefined)	> 195
CNC(=O)C1(CCCc2ccncc2)CCCCN1 (centres undefined)	> 195
Cc1cc(C)nc(C2CCCNC2)n1 (centres undefined)	> 195
Cc1cc(N(C)C)nc(C2CCNC2)n1 (centres undefined)	> 195
c1cnc(N2CCO[C@H]3CN(CC4CCOC4)C[C@H]32)cn1 (some centres undefined)	> 195
CC(=O)N1CCO[C@@H]2CN(Cc3cccc(Cl)c3)C[C@@H]2C1	> 195
CNC(=O)COC1COC2(CCN(Cc3cccnc3)CC2)C1 (centres undefined)	> 195
c1cc(CN2C[C@H](OCC3CCOCC3)[C@H]3COC[C@H]32)co1	> 195
N#Cc1cccc(CN2CC[C@@H]3CN(c4ncccn4)CCO[C@@H]3C2)c1	> 195
CN(C)C(=O)CN1CCOCC2(C1)CN(c1ncccn1)CCO2 (centres undefined)	> 195
CN(C)[C@@H]1CN(C(=O)Cc2ccc(F)cc2)[C@@H]2CCCO[C@H]12	> 195
c1csc(CN2C[C@H](OCC3CC3)[C@H]3COC[C@H]32)n1	> 195
CN1CC[C@@H]2OC[C@H](C(=O)N(C)Cc3ccccn3)C[C@@H]2C1	> 195
Cc1ccc(CN2CCO[C@H]3[C@H](OCc4cccnc4)CC[C@@H]32)o1	> 195
OC1CCCN(Cc2ccnc(-c3cccnc3)n2)C1 (centres undefined)	> 195
CC(C)c1ncc(CN2CCC(CO)C2)cn1 (centres undefined)	> 195
Cc1cc(C[C@@H]2COC[C@H]2NCc2ccc(Cl)c(Cl)c2)on1	> 195
Cc1cc(C[C@@H]2CCC[C@H]2NCc2ccccc2F)on1	> 195
Cc1nc(O)cc(C2CCN(Cc3ccc(F)c(F)c3)C2)n1 (centres undefined)	> 195
